As usually defined, the EC50 is the concentration that produces a half-maximal response. Low readings indicate an effect from little substance, high ones a need for much substance.

In this assay the target is T1, human GPR120 (Homo sapiens, UniProt Q5NUL3).
T1 sequence (Q5NUL3 1-361): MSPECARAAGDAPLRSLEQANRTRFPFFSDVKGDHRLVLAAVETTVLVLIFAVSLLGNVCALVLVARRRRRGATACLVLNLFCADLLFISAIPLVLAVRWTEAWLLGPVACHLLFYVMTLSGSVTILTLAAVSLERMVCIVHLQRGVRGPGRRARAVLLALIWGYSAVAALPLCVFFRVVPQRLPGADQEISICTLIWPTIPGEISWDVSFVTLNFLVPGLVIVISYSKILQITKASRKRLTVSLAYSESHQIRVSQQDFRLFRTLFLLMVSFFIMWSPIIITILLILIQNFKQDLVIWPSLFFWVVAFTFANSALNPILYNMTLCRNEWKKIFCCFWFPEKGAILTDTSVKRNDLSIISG
The assay can be described thus: Ca2+ influx activity of CHO cells expressing human GPR120. The assay is classed as cell-based.
For the compound `Cc1ccc(-c2ccc(F)cc2COc2ccc(CC3SC(=O)NC3=O)c(F)c2F)cc1` (stereo not shown) [Compound 8g, 5-(2,3-Difluoro-4-((4-fluoro-4′-methyl-[1,1′-biphenyl]-2-yl)methoxy)benzyl)thiazolidine-2,4-dione], a half-maximal effect (EC50) was put at 0.142 ± 0.0125 µM. The value for `Cc1ccc(-c2ccc(F)cc2COc2ccc(CC3SC(=O)NC3=O)c(C)c2)cc1` (stereo not shown) [Compound 2g, 5-(4-((4-Fluoro-4′-methyl-[1,1′-biphenyl]-2-yl)methoxy)-2-methylbenzyl)thiazolidine-2,4-dione] was 0.134 ± 0.0118 µM.

`Cc1ccc(-c2ccc(F)cc2COc2ccc(CC3SC(=O)NC3=O)cc2F)cc1` (stereo not shown) [Compound 7g, 5-(3-Fluoro-4-((4-fluoro-4′-methyl-[1,1′-biphenyl]-2-yl)methoxy)benzyl)thiazolidine-2,4-dione] had a 50% effective concentration (EC50) of 0.276 ± 0.0205 µM. The value for `COc1cc(OCc2cc(F)ccc2-c2ccc(C)cc2)ccc1CC1SC(=O)NC1=O` (stereo not shown) [Compound 3g, 5-(4-((4-Fluoro-4′-methyl-[1,1′-biphenyl]-2-yl)methoxy)-2-methoxybenzyl)thiazolidine-2,4-dione] was 0.122 ± 0.0131 µM; that for `Cc1ccc(-c2ccc(F)cc2COc2ccc(CC3SC(=O)NC3=O)cc2)cc1` (stereo not shown) [Compound 1g, 5-(4-((4-Fluoro-4′-methyl-[1,1′-biphenyl]-2-yl)methoxy)benzyl)thiazolidine-2,4-dione] was 0.182 ± 0.0132 µM; that for `Cc1ccc(-c2ccc(F)cc2COc2ccc(CC3SC(=O)NC3=O)cc2C)cc1` (stereo not shown) [Compound 6g, 5-(4-((4-Fluoro-4′-methyl-[1,1′-biphenyl]-2-yl)methoxy)-3-methylbenzyl)thiazolidine-2,4-dione] was 0.461 ± 0.0361 µM.

In turn, `Cc1ccc(-c2ccc(F)cc2COc2cc(F)c(CC3SC(=O)NC3=O)c(F)c2)cc1` (stereo not shown) [Compound 9g, 5-(2,6-Difluoro-4-((4-fluoro-4′-methyl-[1,1′-biphenyl]-2-yl)methoxy)benzyl)thiazolidine-2,4-dione] had an EC50 of 0.137 ± 0.0163 µM.

Source of the values: article PMC8981563 (RSC Advances, 2022).
